Assay results as given in patent publication US8476197B2, “Aminopropenoates as fungicides” (priority 2009, dated 2013).
Marks after values point to notes of the source that are not given here.

conditions: pH 2.7

| SMILES | Log P |
| --- | --- |
| COC(=O)C(C#N)=C(NC1CCc2ccccc21)c1cccnc1Cl (centres unmarked) [Compound 1078] | 3.06^[a] |
| COC(=O)C(C#N)=C(NC(C)C(=O)OC)c1sc(C)nc1C(F)(F)F (centres unmarked) [Compound 665] | 2.62^[a] |
| CCOC(=O)C(C#N)=C(NC1(COc2ccccc2)CC1)c1cccnc1Cl [Compound 560] | 3.6^[a] |
| CCOC(=O)C(C#N)=C(NC(COC)COC)c1cccnc1Cl [Compound 1358] | 2.56^[a] |
| CCOC(=O)C(C#N)=C(NC(C#N)Cc1ccccc1)c1cn(C)nc1C(F)F (centres unmarked) [Compound 1221] | 2.98^[a] |
| COC(=O)C(C#N)=C(NC(C)c1cccc(Cl)c1)c1cccnc1Cl (centres unmarked) [Compound 403] | 3.19^[a] |
| COC1(NC(=O)C(C#N)=C(NC(C)C(C)C)c2cccnc2Cl)CC1 (centres unmarked) [Compound 1613] | 2.75^[a] |
| CCOC(=O)C(C#N)=C(NC(C)c1cccc(Cl)c1)c1cn(C)nc1C(F)F (racemic) [Compound 554] | 3.55^[a] |
| CCOC(=O)C(C#N)=C(NC(C)CC(=O)Nc1ccccc1C)c1cccnc1Cl (centres unmarked) [Compound 1192] | 2.8^[a] |
| CCOC(=O)C(C#N)=C(NC(C)c1c(F)cccc1F)c1cccnc1Cl (centres unmarked) [Compound 1535] | 3.27^[a] |
| CCOC(=O)C(C#N)=C(Nc1ccc(OC(F)F)cc1)c1cn(C)nc1C(F)F [Compound 472] | 3.04^[a] |
| CCOC(=O)C(C#N)=C(NC(C)COC)c1ccsc1Br (centres unmarked) [Compound 714] | 3.21^[a] |
| CCOC(=O)C(C#N)=C(NC(C)c1ncc(C)s1)c1cccnc1Cl (centres unmarked) [Compound 1520] | 2.92^[a] |
| C#CC(C)NC(=C(C#N)C(=O)OCC)c1cn(C)nc1C(F)F (centres unmarked) [Compound 1049] | 2.44^[a] |

The remaining lines, values ahead:

| Log P | SMILES |
| --- | --- |
| 2^[a] | CCOC(=O)C(C#N)=C(NCc1nccs1)c1cn(C)nc1C(F)F [Compound 68] |
| 3.69^[a] | CCOC(=O)C(C#N)=C(NCC(C)c1ccccc1Br)c1cn(C)nc1C(F)F (centres unmarked) [Compound 1348] |
| 2.9^[a] | CC#CC(C)(C)NC(=C(C#N)C(=O)OCC)c1cn(C)nc1C(F)F [Compound 1043] |
| 3.92^[a] | CCOC(=O)C(C#N)=C(NC(C)c1nc(C)c(C)s1)c1sccc1C(F)(F)F (centres unmarked) [Compound 97] |
| 3.64^[a] | CCOC(=O)C(C#N)=C(NC(C(=O)OC)C(C)C)c1sc(C)nc1C(F)(F)F (centres unmarked) [Compound 682] |
| 1.88^[a] | CCNC(=O)C(C)NC(=C(C#N)C(=O)OCC)c1cn(C)nc1C(F)F (racemic) [Compound 1256] |
| 5.11^[a] | CCOC(=O)C(C#N)=C(NC(C)C1CCCCC1)c1sccc1C(F)(F)F (centres unmarked) [Compound 873] |
| 4.25^[a] | C=CCSc1ccccc1NC(=C(C#N)C(=O)OCC)c1cc(C)oc1C [Compound 420] |
| 2.84^[a] | CCOC(=O)C(C#N)=C(NC(C)C1CC1)c1cn(C)nc1C(C)F (racemic) [Compound 895] |
| 4.27^[a] | CCOC(=O)C(C#N)=C(NC(C)c1ccc(Cl)cc1)c1sc(C)nc1C(F)(F)F (centres unmarked) [Compound 433] |
| 3.96^[a] | CCOC(=O)C(C#N)=C(NC(C)COc1c(C)cccc1C)c1cn(C)nc1C(F)F (centres unmarked) [Compound 684] |
| 2.19^[a] | CCOC(=O)C(C#N)=C(NC(C)Cc1nccs1)c1ccncc1F (mixture of isomers) [Compound 302] |
| 3.64^[a] | CCOC(=O)C(C#N)=C(NC(C)c1ccc(Cl)cc1)c1cn(C)nc1C(C)F (mixture of isomers) [Compound 520] |
| 1.79^[a] | CCOC(=O)C(C#N)=C(NC1CCS(=O)(=O)C1)c1cn(C)nc1C(F)F (centres unmarked) [Compound 1420] |
| 3.44^[a] | CCOC(=O)C(C#N)=C(NC(C#N)c1cccc(Cl)c1Cl)c1cn(C)nc1C(F)F (centres unmarked) [Compound 1219] |

same assay, conditions: pH 7.5

| Log P | SMILES |
| --- | --- |
| 2.94 | CC(NC(=C(C#N)C(=O)OC(C)C(F)(F)F)c1cccnc1Cl)c1nccs1 (mixture of isomers) [Compound 56] |
| 3.07 | CC(NC(=C(C#N)C(=O)OC(C)(C)C)c1cccnc1Cl)c1nccs1 (centres unmarked) [Compound 25] |

| SMILES | Log P |
| --- | --- |
| CCOC(=O)C(C#N)=C(NC(C)CC(C)C)c1cccnc1Cl (racemic) [Compound 778] | 3.62 |
